In PubChem BioAssay AID2060606 (Molecular Pharmacology Branch, DTP, NCI, 2025):
Values belong to the compound of their own block, whether it stands above or below them.

Tested on: 922993-354-T-J3-PDC complex spheroids, viability, % test/control
Assay: Anticancer human tumor 922993-354-T-J3-PDC patient-derived endometrial carcinoma cell line growth inhibition [CLK]
Conditions: for IC50: curve of first compound; for viability, T/C: stronger effect = lower value
Outline: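 Patient-derived tumor cells grown as complex spheroids with HUVEC endothelial cells and mesenchymal stem cells, treated with drug combinations. Concentrations descend in half-log steps from near clinical Cmax, or from 10 microM if Cmax unknown.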

[1] = second compound 0.0316 µM, first compound 0.0316 µM
[2] = second compound 0.0316 µM, first compound 0.1 µM
[3] = second compound 0.0316 µM, first compound 0.316 µM
[4] = second compound 0.0316 µM, first compound 1 µM
[5] = second compound 0.0316 µM, first compound 3.16 µM
[6] = second compound 0.0316 µM, first compound 10 µM
[7] = second compound 0.1 µM, first compound 0.0316 µM
[8] = second compound 0.1 µM, first compound 0.1 µM
[9] = second compound 0.1 µM, first compound 0.316 µM
[10] = second compound 0.1 µM, first compound 1 µM
[11] = second compound 0.1 µM, first compound 3.16 µM
[12] = second compound 0.1 µM, first compound 10 µM
[13] = second compound 0.316 µM, first compound 0.0316 µM
[14] = second compound 0.316 µM, first compound 0.1 µM
[15] = second compound 0.316 µM, first compound 0.316 µM
[16] = second compound 0.316 µM, first compound 1 µM
[17] = second compound 0.316 µM, first compound 3.16 µM
[18] = second compound 0.316 µM, first compound 10 µM
[19] = second compound 1 µM, first compound 0.0316 µM
[20] = second compound 1 µM, first compound 0.1 µM
[21] = second compound 1 µM, first compound 0.316 µM
[22] = second compound 1 µM, first compound 1 µM
[23] = second compound 1 µM, first compound 3.16 µM
[24] = second compound 1 µM, first compound 10 µM
[25] = second compound 3.16 µM, first compound 0.0316 µM
[26] = second compound 3.16 µM, first compound 0.1 µM
[27] = second compound 3.16 µM, first compound 0.316 µM
[28] = second compound 3.16 µM, first compound 1 µM
[29] = second compound 3.16 µM, first compound 3.16 µM
[30] = second compound 3.16 µM, first compound 10 µM
[31] = second compound 10 µM, first compound 0.0316 µM
[32] = second compound 10 µM, first compound 0.1 µM
[33] = second compound 10 µM, first compound 0.316 µM
[34] = second compound 10 µM, first compound 1 µM
[35] = second compound 10 µM, first compound 3.16 µM
[36] = second compound 10 µM, first compound 10 µM
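Also: spheroids exposed to the agents for 7 days before readout.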

Compound: CC(=O)O[C@H]1C(=O)[C@@]2(C)[C@H]([C@H](OC(=O)c3ccccc3)[C@]3(O)C[C@H](OC(=O)[C@H](O)[C@@H](NC(=O)c4ccccc4)c4ccccc4)C(C)=C1C3(C)C)[C@]1(OC(C)=O)CO[C@@H]1C[C@@H]2O + CN1CCN(c2cc(C(=O)Nc3cc4cc(-c5cnn(C)c5)ccc4cn3)ccn2)CC1
IC50 (second compound 0.0316 µM): 2.88 µM | IC50 (second compound 0.1 µM): 2.37 µM | IC50 (second compound 0.316 µM): < 0.0316 µM | IC50 (second compound 1 µM): < 0.0316 µM | IC50 (second compound 3.16 µM): < 0.0316 µM | IC50 (second compound 10 µM): < 0.0316 µM | viability, T/C [1]: 110% | viability, T/C [2]: 126% | viability, T/C [3]: 91.4% | viability, T/C [4]: 95% | viability, T/C [5]: 43.5% | viability, T/C [6]: 36.3% | viability, T/C [7]: 94.8% | viability, T/C [8]: 100% | viability, T/C [9]: 98.3% | viability, T/C [10]: 63.1% | viability, T/C [11]: 50.1% | viability, T/C [12]: 30.3% | viability, T/C [13]: 26% | viability, T/C [14]: 24.9% | viability, T/C [15]: 29.8% | viability, T/C [16]: 19.9% | viability, T/C [17]: 16.1% | viability, T/C [18]: 14.4% | viability, T/C [19]: 0.1% | viability, T/C [20]: 0.47% | viability, T/C [21]: 0.12% | viability, T/C [22]: 0.07% | viability, T/C [23]: 0.06% | viability, T/C [24]: 0.07% | viability, T/C [25]: 0.1% | viability, T/C [26]: 0.79% | viability, T/C [27]: 0.18% | viability, T/C [28]: 0.67% | viability, T/C [29]: 0.76% | viability, T/C [30]: 0.11% | viability, T/C [31]: 0.12% | viability, T/C [32]: 0.14% | viability, T/C [33]: 0.2% | viability, T/C [34]: 0.16% | viability, T/C [35]: 1.02% | viability, T/C [36]: 2.94%

Compound: COc1ccc([C@@H](O)c2cc(-c3ncnc4cc(N5CCOCC5)ccc34)c(F)cc2Cl)nn1 + CN1CCN(c2cc(C(=O)Nc3cc4cc(-c5cnn(C)c5)ccc4cn3)ccn2)CC1
IC50 (second compound 0.0316 µM): > 10 µM | IC50 (second compound 0.1 µM): > 10 µM | IC50 (second compound 0.316 µM): < 0.0316 µM | IC50 (second compound 1 µM): < 0.0316 µM | IC50 (second compound 3.16 µM): < 0.0316 µM | IC50 (second compound 10 µM): < 0.0316 µM | viability, T/C [1]: 112% | viability, T/C [2]: 131% | viability, T/C [3]: 123% | viability, T/C [4]: 122% | viability, T/C [5]: 112% | viability, T/C [6]: 85.4% | viability, T/C [7]: 87.8% | viability, T/C [8]: 87.7% | viability, T/C [9]: 85.6% | viability, T/C [10]: 91.5% | viability, T/C [11]: 90.2% | viability, T/C [12]: 76.1% | viability, T/C [13]: 35.9% | viability, T/C [14]: 33.1% | viability, T/C [15]: 30.8% | viability, T/C [16]: 25.4% | viability, T/C [17]: 24.9% | viability, T/C [18]: 24.7% | viability, T/C [19]: 0.11% | viability, T/C [20]: 0.13% | viability, T/C [21]: 0.13% | viability, T/C [22]: 0.11% | viability, T/C [23]: 0.22% | viability, T/C [24]: 1.37% | viability, T/C [25]: 0.13% | viability, T/C [26]: 0.14% | viability, T/C [27]: 1.21% | viability, T/C [28]: 1.06% | viability, T/C [29]: 2.69% | viability, T/C [30]: 1.48% | viability, T/C [31]: 0.14% | viability, T/C [32]: 2.05% | viability, T/C [33]: 1.47% | viability, T/C [34]: 0.25% | viability, T/C [35]: 1.52% | viability, T/C [36]: 2.52%

Compound: COc1cccc2c1C(=O)c1c(O)c3c(c(O)c1C2=O)CC(O)(C(=O)CO)CC3OC1CC(N)C(O)C(C)O1 (stereo not given) + CN1CCN(c2cc(C(=O)Nc3cc4cc(-c5cnn(C)c5)ccc4cn3)ccn2)CC1
IC50 (second compound 0.0316 µM): 2.21 µM | IC50 (second compound 0.1 µM): 1.84 µM | IC50 (second compound 0.316 µM): < 0.0316 µM | IC50 (second compound 1 µM): < 0.0316 µM | IC50 (second compound 3.16 µM): < 0.0316 µM | IC50 (second compound 10 µM): < 0.0316 µM | viability, T/C [1]: 108% | viability, T/C [2]: 119% | viability, T/C [3]: 93.7% | viability, T/C [4]: 66.1% | viability, T/C [5]: 45.2% | viability, T/C [6]: 15.5% | viability, T/C [7]: 123% | viability, T/C [8]: 109% | viability, T/C [9]: 83.3% | viability, T/C [10]: 65% | viability, T/C [11]: 37.8% | viability, T/C [12]: 17.4% | viability, T/C [13]: 31% | viability, T/C [14]: 38% | viability, T/C [15]: 32.9% | viability, T/C [16]: 26.4% | viability, T/C [17]: 13.3% | viability, T/C [18]: 11.1% | viability, T/C [19]: 0.14% | viability, T/C [20]: 1.85% | viability, T/C [21]: 0.14% | viability, T/C [22]: 0.11% | viability, T/C [23]: 0.09% | viability, T/C [24]: 1.32% | viability, T/C [25]: 0.12% | viability, T/C [26]: 0.2% | viability, T/C [27]: 0.67% | viability, T/C [28]: 0.09% | viability, T/C [29]: 1.78% | viability, T/C [30]: 1.28% | viability, T/C [31]: 0.16% | viability, T/C [32]: 0.15% | viability, T/C [33]: 0.16% | viability, T/C [34]: 0.15% | viability, T/C [35]: 1.57% | viability, T/C [36]: 1.56%

IC50 (second compound 0.0316 µM): > 10 µM | IC50 (second compound 0.1 µM): > 10 µM | IC50 (second compound 0.316 µM): 0.65 µM | IC50 (second compound 1 µM): < 0.0316 µM | IC50 (second compound 3.16 µM): < 0.0316 µM | IC50 (second compound 10 µM): < 0.0316 µM
Compound: CCCS(=O)(=O)Nc1ccc(F)c(C(=O)c2c[nH]c3ncc(-c4ccc(Cl)cc4)cc23)c1F + CNC(=O)c1ccc(Nc2nc(OC3CCCC3)c3c(-c4ccc5nc(C)oc5c4)c[nH]c3n2)c(OC)c1
viability, T/C [1]: 96.5% | viability, T/C [2]: 93.9% | viability, T/C [3]: 109% | viability, T/C [4]: 103% | viability, T/C [5]: 90.9% | viability, T/C [6]: 74.4% | viability, T/C [7]: 110% | viability, T/C [8]: 103% | viability, T/C [9]: 109% | viability, T/C [10]: 113% | viability, T/C [11]: 85.2% | viability, T/C [12]: 67.6% | viability, T/C [13]: 70.8% | viability, T/C [14]: 73.4% | viability, T/C [15]: 57.9% | viability, T/C [16]: 46.5% | viability, T/C [17]: 49.1% | viability, T/C [18]: 40.2% | viability, T/C [19]: 40.2% | viability, T/C [20]: 32.9% | viability, T/C [21]: 32.8% | viability, T/C [22]: 35.4% | viability, T/C [23]: 31.8% | viability, T/C [24]: 24.3% | viability, T/C [25]: 32% | viability, T/C [26]: 31.3% | viability, T/C [27]: 30.3% | viability, T/C [28]: 30.2% | viability, T/C [29]: 27.7% | viability, T/C [30]: 24% | viability, T/C [31]: 30.3% | viability, T/C [32]: 31.7% | viability, T/C [33]: 27.4% | viability, T/C [34]: 29.6% | viability, T/C [35]: 26.7% | viability, T/C [36]: 23.1%

IC50 (second compound 0.0316 µM): 6.37 µM | IC50 (second compound 0.1 µM): 6.79 µM | IC50 (second compound 0.316 µM): 2.25 µM | IC50 (second compound 1 µM): < 0.0316 µM | IC50 (second compound 3.16 µM): < 0.0316 µM | IC50 (second compound 10 µM): < 0.0316 µM
Compound: COC1C=CCC(C)C(C)S(=O)(=O)NC(=O)c2ccc3c(c2)N(CC2CCC21)CC1(CCCc2cc(Cl)ccc21)CO3 (stereo not given) + CNC(=O)c1ccc(Nc2nc(OC3CCCC3)c3c(-c4ccc5nc(C)oc5c4)c[nH]c3n2)c(OC)c1
viability, T/C [1]: 111% | viability, T/C [2]: 117% | viability, T/C [3]: 104% | viability, T/C [4]: 98.9% | viability, T/C [5]: 90.4% | viability, T/C [6]: 25.6% | viability, T/C [7]: 114% | viability, T/C [8]: 99.6% | viability, T/C [9]: 107% | viability, T/C [10]: 105% | viability, T/C [11]: 103% | viability, T/C [12]: 23% | viability, T/C [13]: 64.6% | viability, T/C [14]: 70.2% | viability, T/C [15]: 66.1% | viability, T/C [16]: 57% | viability, T/C [17]: 47.5% | viability, T/C [18]: 17.9% | viability, T/C [19]: 33.7% | viability, T/C [20]: 39% | viability, T/C [21]: 32.1% | viability, T/C [22]: 27.7% | viability, T/C [23]: 21.2% | viability, T/C [24]: 11% | viability, T/C [25]: 27.3% | viability, T/C [26]: 30.2% | viability, T/C [27]: 25.7% | viability, T/C [28]: 20.8% | viability, T/C [29]: 16.5% | viability, T/C [30]: 9.29% | viability, T/C [31]: 29.8% | viability, T/C [32]: 25.2% | viability, T/C [33]: 23.3% | viability, T/C [34]: 17.3% | viability, T/C [35]: 13.4% | viability, T/C [36]: 10.7%
